In US9957282B2, “Crystalline forms of quinolone analogs and their salts” (Senhwa Biosciences, Inc., priority 2015, dated 2018):

Assays:
[1] = Solubility of polymorph forms in organic solvents; assay type: physicochemical
Protocol: Solubility of polymorphs A, C, E, and G of Compound I (free base) were determined by suspending approximately 25 mg of each polymorph in organic solvents and the resulting mixtures were stirred at room temperature or elevated temperatures for 1 h. A sample was filtered and the concentration was determined by HPLC. The remaining suspension was evaporated and the solid was analyzed by XRPD to confirm that the polymorph form in the suspension was still the same polymorph form used for the experiment.

[2] = Aqueous solubility of acid salts of Compound I; assay type: physicochemical; conditions: water, 42 °C, thermodynamic from solid, approximately 50 mg salt in 0.25 mL water (x2, added portion wise), read-out: Aqueous Solubility (Calculated)
Protocol: The mixture was stirred at 42° C. for 3 days and each solution was analyzed by HPLC for concentration and purity.

Row | SMILES | Relative stability of polymorph, inferred from solubility ([1]; compared with polymorphs C, E, G) | Solubility of polymorph relative to polymorphs A, C, E, G ([1]; methanol and THF (FIG. 20), room temperature or elevated temperatures, stirred 1 h) | solubility at 3 days [2] [mg/mL]
1 | Cc1cnc(CNC(=O)c2c(=O)c3ccc(N4CCCN(C)CC4)nc3n3c2sc2ccccc23)cn1 [Polymorph A] | most stable | lowest solubility | 
2 | Cc1cnc(CNC(=O)c2c(=O)c3ccc(N4CCCN(C)CC4)nc3n3c2sc2ccccc23)cn1 |  |  | > 200
